Reference: patent publication US11279733B2, “Peptide antibiotics” (priority 2017, dated 2022)
≈ marks a conversion by molar mass, not a printed value. Like-named read-outs stand apart in the source and are kept apart here. Positions of bridges follow the written chain, without caps; N, C: chain ends. Non-standard residues stand in square brackets, D forms with d. Residues, ends and D or L forms follow the SMILES beside them. *: point of attachment. Bip = N[C@@H](Cc1ccc(-c2ccccc2)cc1)C(=O)O; Decanoyl(3R-OH) = CCCCCCC[C@@H](O)CC(=O)*; X9 = CCCCCC1CCC(C(=O)*)CC1; dDab = NCC[C@@H](N)C(=O)O; Dab = NCC[C@H](N)C(=O)O; Dap = NC[C@H](N)C(=O)O

Assays:
[1] = system: A. baumannii ATCC 19606; settings: ATCC 19606
How it was run: (§1)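 Mid-log cultures grown in Mueller Hinton broth at 37° C were tested by 2-fold broth microdilution at 5×10^5 CFU/mL final. Compounds were dissolved in water and tested over a final range of 32 to 0.015 μg/mL.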

[2] = system: A. baumannii GN_093 PmxR; settings: GN 093 PmxR
How it was run: as §1

[3] = system: E. coli ATCC 25922; settings: ATCC 25922
How it was run: as §1

[4] = system: K. pneumoniae ATCC 13883; settings: ATCC 13883
How it was run: as §1

[5] = system: K. pneumoniae ATCC 700603, MDR; settings: ATCC 700603
How it was run: as §1

[6] = system: K. pneumoniae ATCC BAA-2146, NDM-1 pos; settings: ATCC BAA-2146
How it was run: as §1

[7] = system: K. pneumoniae GN_102 PmxR; settings: GN 102 PmxR
How it was run: as §1

[8] = system: K. pneumoniae GN_106, PmxR; settings: GN 106, PmxR
How it was run: as §1

[9] = system: P. aeruginosa ATCC 27853; settings: ATCC 27853
How it was run: as §1

[10] = system: P. aeruginosa GN_043, PmxR
How it was run: as §1

[11] = system: P. aeruginosa GN_105, PmxR; settings: GN 105, PmxR
How it was run: as §1

[12] = system: S. aureus ATCC 25923, MSSA; settings: ATCC 25923
How it was run: as §1

[13] = in vitro; settings: human
Description: Cytotoxicity of the synthesised peptides was evaluated by comparison with commercially available colistin (polymyxin E), polymyxin B (Sigma chemical Co., St. Louis, Mo., U.S.A.) and synthetic octapeptin C4 by conducting lactate dehydrogenase (LDH) assay. CC50 values calculated based on curve fitting of dose dependent inhibition of cell growth represented the cytotoxicity of the peptide. Human kidney 2 (HK2) cells were seeded as 2000 cells per well in a 384 well cell culture plate in a final volume of 20 μL in DMEM/F12 medium (Invitrogen #11330057), in which 10% of FBS was added. Cells were incubated for 24 hours at 37° C., 5% CO2 to allow cells to attach to the plates. Similar conditions were employed for HEK293 and HepG2 cytotoxicity assays.
Colistin and polymyxin B were tested from a range of 2 mM to 0.9 μM. 120 μL of the 1 mM stock solutions in water of each synthesised peptide were freeze-dried and processed for LDH assay. After freeze-dry procedure, the compounds were reconstituted into 600 μM solutions using culture media. All tested compounds were diluted from 600 μM to 0.27 μM in 3-fold dilutions. Then 20 μL of each dilution was added into 20 uL of culture medium in quadruplicate to reach the final concentrations. The cells were incubated with the compounds for 24 h at 37° C., 5% CO2. After the incubation, 5 μL of culture medium was added to 50 μL of LDH assay buffer and incubated for 1 h at room temperature. The absorbance was read at 450 nm using Polarstar. The data was then analysed by Prism software. […] Nephrotoxicity Assessment in Human Proximal Tubule Cells.

Row | Structure (SMILES) | MIC A. baumannii ATCC 19606 [1] [µg/mL] | MIC A. baumannii GN_093 PmxR [2] [µg/mL] | MIC E. coli ATCC 25922 [3] [µg/mL] | MIC K. pneumoniae ATCC 13883 [4] [µg/mL] | MIC K. pneumoniae ATCC 700603, MDR [5] [µg/mL] | MIC K. pneumoniae ATCC BAA-2146, NDM-1 pos [6] [µg/mL] | MIC K. pneumoniae GN_102 PmxR [7] [µg/mL] | MIC K. pneumoniae GN_106, PmxR [8] [µg/mL] | MIC P. aeruginosa ATCC 27853 [9] [µg/mL] | MIC P. aeruginosa GN_043, PmxR ([10]; polymyxin-resistant) [µg/mL] | MIC P. aeruginosa GN_105, PmxR [11] [µg/mL] | MIC S. aureus ATCC 25923, MSSA [12] [µg/mL] | CC50 at 24 h [13] [µM] | MIC P. aeruginosa GN_043, PmxR ([10]; P. aeruginosa GN_043, PmxR) [µg/mL]
1 | CCCCCCC[C@@H](O)CC(=O)N[C@H](CCN)C(=O)N[C@H]1CCNC(=O)[C@H](Cc2ccccc2)NC(=O)[C@H](CN)NC(=O)[C@H](CCN)NC(=O)[C@H](CC(C)C)NC(=O)[C@@H](Cc2ccccc2)NC(=O)[C@H](CCN)NC1=O [compound 5385, 3(R)OH-nC9CO-D-Dab-cyc[L-Dab-L-Dab-D-Phe-L-Leu-L-Dab-L-Dap-L-Phe]] ({Decanoyl(3R-OH)}-[dDab][Dab][Dab][dF]L[Dab][Dap]F; lactam 2-C) | 8 (≈ 7.52 µM) | 16 (≈ 15 µM) | 4 (≈ 3.76 µM) | 4 (≈ 3.76 µM) | 8 (≈ 7.52 µM) | 4 (≈ 3.76 µM) | 8 (≈ 7.52 µM) | 16 (≈ 15 µM) | 2 (≈ 1.88 µM) | 2 (≈ 1.88 µM) | 2 (≈ 1.88 µM) | 8 (≈ 7.52 µM) | 41 | 
2 | CCCCCCC[C@@H](O)CC(=O)N[C@H](CCN)C(=O)N[C@H]1CCNC(=O)[C@H]([C@@H](C)O)NC(=O)[C@H](CCN)NC(=O)[C@H](CCN)NC(=O)[C@H](Cc2ccc(-c3ccccc3)cc2)NC(=O)[C@@H](Cc2ccccc2)NC(=O)[C@H](CCN)NC1=O [compound 5607, 3(R)OH-nC9CO-D-Dab-cyc[L-Dab-L-Dab-D-Phe-L-Bip-L-Dab-L-Dab-L-Thr]] ({Decanoyl(3R-OH)}-[dDab][Dab][Dab][dF][Bip][Dab][Dab]T; lactam 2-C) | 8 (≈ 7 µM) | >32 | 8 (≈ 7 µM) | 16 (≈ 14 µM) | 4 (≈ 3.5 µM) | 4 (≈ 3.5 µM) | 32 (≈ 28 µM) | 32 (≈ 28 µM) | 4 (≈ 3.5 µM) |  | 2 (≈ 1.75 µM) | 4 (≈ 3.5 µM) | 19 | 2 (≈ 1.75 µM)
3 | CCCCCC1CCC(C(=O)N[C@H](CCN)C(=O)N[C@H]2CCNC(=O)[C@H]([C@@H](C)O)NC(=O)[C@H](CCN)NC(=O)[C@H](CCN)NC(=O)[C@H](CC(C)C)NC(=O)[C@@H](Cc3ccccc3)NC(=O)[C@H](CCN)NC2=O)CC1 (stereo partly drawn) [compound 6404, C11H21CO-D-Dab-cyc[L-Dab-L-Dab-D-Phe-L-Leu-L-Dab-L-Dab-L-Thr]] (X9-[dDab][Dab][Dab][dF]L[Dab][Dab]T; lactam 2-C) | 64 (≈ 61.4 µM) | >32 | 1 (≈ 0.959 µM) | 16 (≈ 15.4 µM) | 0.5 (≈ 0.48 µM) | 1 (≈ 0.959 µM) | >32 | >32 | 0.25 (≈ 0.24 µM) |  | 8 (≈ 7.68 µM) | 8 (≈ 7.68 µM) | 38 | 32 (≈ 30.7 µM)
